Test [1] has as its system arthritis pain in the rat. In words: arthritis pain test in the rat (Test A). Type of test: in vivo. The settings on record: po. The protocol:
(A) the arthritis pain test in the rat [based on the method of A. W. Pircio et al., Eur. J. Pharmacol., 31, 207-215 (1975)] at dosages of from 3 to 50 mg/kg p.o.; and […]

The subject of test [2] is inflamed rat-hind-paw. Description: Randall-Selitto test on the inflamed rat-hind-paw (Test B). In kind it is in vivo. The settings on record: po. The method, then:
(B) the Randall-Selitto test on the inflamed rat-hind-paw [Arch. Int. Pharmacodyn. 61, 409-419 (1957)] at dosages of from 20 to 200 mg/kg p.o..

The ED50 is the dose that gives a 50% effect, or the effect in half of the subjects. High values mean weaker potency, low ones greater potency. In turn, `CC(=O)Nc1ccc(O)cc1` [III, Paracetamol, reference compound] showed an ED50 in test [1] of 174 mg/kg.
Turning to `CCOc1ccc2c(c1)C(C)(C)CN2` [I, 3,3-Dimethyl-5-ethoxy-indoline], the ED50 in test [1] was determined as 18 mg/kg; in test [2], 133 mg/kg.
Consider `CCOc1ccc2c(c1)NCC2(C)C` [II, 3,3-Dimethyl-6-ethoxy-indoline], for which the ED50 in test [1] was 7 mg/kg; in test [2], 78 mg/kg.

The record behind these values is US4622336A, “3,3-dialkyl-and 3,3-alkylene-indoline derivatives, processes for their production and pharmaceutical compositions comprising them” (Sandoz Ltd., priority 1982, dated 1986).
